Measurements as given in patent US20120028897A1, “METHODS AND COMPOSITIONS FOR THE TREATMENT OF FLUID RETENTION DISORDERS” (priority 2008, published 2012).

Tests used:
Type in all cases: in vivo, rat
anesthetized rats [1] = test: Mean arterial blood pressure during and after iv peptide infusion
Experimental: (§1) Rats were not fasted prior to clearance experiments and ranged in weight from 250-340 g at the time of study. Anesthesia was induced with an intraperitoneal injection of pentobarbital sodium (55 mg/kg BW) and maintained at a surgical plane by intermittent intravenous supplementation. Core temperature was maintained at 37° C. by a servo-controlled, heated operating table. Animals breathed spontaneously through a PE240 cannula inserted into the trachea. A jugular vein was catheterized with PE50 cannula tubing for intravenous infusion of isotonic saline containing FITC-labeled inulin (0.4% W/V, Sigma, St Louis Mo.) and two PE10 cannulae, one for supplemental anesthetic and the other for peptide infusions (described below in the experimental protocol section). The ureters were exposed through a midline ventral incision and cannulated with PE10 tubing about one cm from each kidney. Urine was collected over 20 min periods and the volume estimated by weight. A femoral artery was cannulated with PE50 tubing for continuous measurement of arterial blood pressure and intermittent blood samples (50 μl), taken at the mid point of each urine collection.
(§2) Arterial blood pressure was measured with a pressure transducer connected to a cardiovascular analyzer (Model 50110, Stoelting Instruments Wood Dale, Ill.). Left renal blood flow was measured in some rats with a flow probe positioned on the left renal artery and connected to a blood flow monitor (model 1 PRB probe and model T420 monitor, Transonic Systems Inc. Ithaca N.Y.). Arterial pressure, heart rate, and renal blood flow were digitized with an A/D converter (Keithley instruments, Cleveland, Ohio Model KUSB 3100) for display and storage on a Windows-based personal computer using open layers data acquisition software (Dtx_Ez, Data Translation Inc, Marlboro, Mass.). Sodium and potassium concentrations in plasma and urine were measured by flame photometry (Model 943, Instrumentation Laboratory Co., Lexington Mass.). Glomerular filtration rate (GFR) was measured as the renal clearance rate of FITC-labeled inulin
(§3) After post-surgical equilibration (−60 min) and three 20 min control clearance periods, huUgnA or B was infused into the jugular vein at 10 μl/min over a 60 min period, followed by a return to isotonic saline for the remainder of the experiment. The infused doses of huUgnA were 12, 25, 50, 100, or 200 nmol/kg BW in a total of 38 rats; huUgnB doses were 9, 18, 35, 70, and 140 nmol/kg BW in 35 rats. A UgnA mimetic, E. coli STh (ST-core), was infused into a third group of 32 rats at doses of 17, 32, 66, 133, and 266 nmol/kg. Renal excretory responses to these infusions were slow to develop and long lasting, so clearance periods were continued for 2-3 hr after the termination of the peptide infusion. This protracted time course limited protocols to one dose of one peptide in each rat. A control group of 10 rats received isotonic saline at 10 μl/min in place of the peptide infusion, but was otherwise treated in the same way as the experimental groups.
(§4) Group comparisons were made with one way analysis of variance (ANOVA) using peptide doses as column variables. Columns were further divided into pre-infusion, infusion, and post infusion subgroups to facilitate post hoc testing with Bonferroni's method for selected multiple comparisons. Row variables were individual measurements from each clearance period for each rat. Responses were tested for statistical significance by comparing control values during the pre-infusion, infusion and post infusion collection periods with corresponding values obtained from peptide-infused rats. Each experimental group included 5 different doses of huUgnA, huUgnB, or ST-core. Thus, fifteen comparisons were required for each measured variable in each group.

anesthetized rats [2] = test: Urine flow rate during and after iv peptide infusion
Experimental: as §1, §3, §4

anesthetized rats [3] = test: Glomerular filtration rate (FITC-inulin clearance) during and after iv peptide infusion
Experimental: All rats received a continuous intravenous infusion (10 μl/min/100 g BW) of isotonic saline containing FITC-labeled inulin for measurement of inulin clearance. Uncongugated FITC label and small inulin polymers were removed from the inulin solution by overnight dialysis against isotonic saline (SpectraPor 6 dialysis membrane, 1 kDa cutoff-limit, Spectrum Laboratories, Rancho Domingo, Calif.). Undissolved particulates were removed from the solution by filtration through a […] filter before each experiment (Steriflip, Millipore Inc. Billerica, Mass.). At least one hr was allowed for equilibration before the start of urine collections, at which point plasma inulin concentration had stabilized at an average value of 30±3 μg/ml.
as §2, §3
This assay was based on the method described by Lorenz and Gruenstein. Urine samples were diluted with hepes-buffered saline (3, 5, 10, or 20 fold, based on urine flow) to neutralize the pH and bring the intensity of FITC emissions into detector range. Small volumes (3-5 μl) of diluted urine and undiluted plasma samples were drawn into constant bore capillary tubes (10 μl Microcap tubes, Drummond Scientific Company, Broomall Pa.) and sealed at each end with water-saturated mineral oil. FITC emission intensity was measured by imaging each sample at 10× magnification with an epifluorescence microscope (Axiovert S100TV, Carl Zeiss Inc. Thornwood, N.Y.) fitted with a CCD camera (Orca II, Hamamatsu Inc. Bridgewater, N.J.) controlled by Metamorph imaging software (Molecular Devices, Sunnyvale, Calif.). Fluorescence intensities were measured as mean pixel intensity obtained from a consistent central region of each sample during a 25 or 500 msec exposure for urine and plasma, respectively. Background intensities were measured in the same way using bladder urine and tail vein plasma collected from the same rat before the beginning of inulin infusion. Inulin concentrations in plasma and urine samples were calculated from a standard curve prepared from the infusion solution used in each experiment. […]

**Q.** What does the source list for CC(C)C[C@H](NC(=O)[C@@H]1CSSC[C@@H]2NC(=O)[C@H](CC(C)C)NC(=O)[C@H](CCC(=O)O)NC(=O)[C@@H](NC(=O)[C@H](CC(=O)O)NC(=O)[C@H](CC(=O)O)NC(=O)[C@@H](N)CC(N)=O)CSSC[C@H](NC(=O)[C@H](C)NC(=O)[C@H](C(C)C)NC(=O)[C@H](CC(N)=O)NC(=O)[C@H](C(C)C)NC2=O)C(=O)N[C@@H]([C@@H](C)O)C(=O)NCC(=O)N1)C(=O)O (single isomer, unassigned) [huUgnA, Asn Asp Asp Cys Glu Leu Cys Val Asn Val Ala Cys Thr Gly Cys Leu, reference compound]?
**A.** BP (mean arterial blood pressure) (anesthetized rats [1]; huUgnA 12 nmol, Infusion): 110 ± 4 mmHg; BP (mean arterial blood pressure) (anesthetized rats [1]; huUgnA 12 nmol, Post-infuse): 104 ± 3 mmHg; BP (mean arterial blood pressure) (anesthetized rats [1]; huUgnA 12 nmol, Pre-infuse): 121 ± 4 mmHg; BP (mean arterial blood pressure) (anesthetized rats [1]; huUgnA 25 nmol, Infusion): 111 ± 4 mmHg; BP (mean arterial blood pressure) (anesthetized rats [1]; huUgnA 25 nmol, Post-infuse): 105 ± 4 mmHg; BP (mean arterial blood pressure) (anesthetized rats [1]; huUgnA 25 nmol, Pre-infuse): 119 ± 3 mmHg; BP (mean arterial blood pressure) (anesthetized rats [1]; huUgnA 50 nmol, Infusion): 106 ± 3 mmHg; BP (mean arterial blood pressure) (anesthetized rats [1]; huUgnA 50 nmol, Post-infuse): 101 ± 3 mmHg; BP (mean arterial blood pressure) (anesthetized rats [1]; huUgnA 50 nmol, Pre-infuse): 117 ± 3 mmHg; BP (mean arterial blood pressure) (anesthetized rats [1]; huUgnA 100 nmol, Infusion): 115 ± 3 mmHg; BP (mean arterial blood pressure) (anesthetized rats [1]; huUgnA 100 nmol, Post-infuse): 109 ± 4 mmHg; BP (mean arterial blood pressure) (anesthetized rats [1]; huUgnA 100 nmol, Pre-infuse): 121 ± 4 mmHg; BP (mean arterial blood pressure) (anesthetized rats [1]; huUgnA 200 nmol, Infusion): 113 ± 5 mmHg; BP (mean arterial blood pressure) (anesthetized rats [1]; huUgnA 200 nmol, Post-infuse): 112 ± 4 mmHg; BP (mean arterial blood pressure) (anesthetized rats [1]; huUgnA 200 nmol, Pre-infuse): 121 ± 7 mmHg; V (urine flow rate) (anesthetized rats [2]; huUgnA 12 nmol, Infusion): 2.34 ± 0.14 μl/min/g KW; V (urine flow rate) (anesthetized rats [2]; huUgnA 12 nmol, Post-infuse): 2.73 ± 0.14 μl/min/g KW; V (urine flow rate) (anesthetized rats [2]; huUgnA 12 nmol, Pre-infuse): 2.07 ± 0.23 μl/min/g KW; V (urine flow rate) (anesthetized rats [2]; huUgnA 25 nmol, Infusion): 2.98 ± 0.28 μl/min/g KW; V (urine flow rate) (anesthetized rats [2]; huUgnA 25 nmol, Post-infuse, * p<0.05 vs time control): 3.53 ± 0.25* μl/min/g KW; V (urine flow rate) (anesthetized rats [2]; huUgnA 25 nmol, Pre-infuse): 2.13 ± 0.17 μl/min/g KW; V (urine flow rate) (anesthetized rats [2]; huUgnA 50 nmol, Infusion): 2.32 ± 0.16 μl/min/g KW; V (urine flow rate) (anesthetized rats [2]; huUgnA 50 nmol, Post-infuse): 3.07 ± 0.20 μl/min/g KW; V (urine flow rate) (anesthetized rats [2]; huUgnA 50 nmol, Pre-infuse): 2.01 ± 0.13 μl/min/g KW; V (urine flow rate) (anesthetized rats [2]; huUgnA 100 nmol, Infusion): 2.48 ± 0.26 μl/min/g KW; V (urine flow rate) (anesthetized rats [2]; huUgnA 100 nmol, Post-infuse): 2.67 ± 0.23 μl/min/g KW; V (urine flow rate) (anesthetized rats [2]; huUgnA 100 nmol, Pre-infuse): 1.76 ± 0.22 μl/min/g KW; V (urine flow rate) (anesthetized rats [2]; huUgnA 200 nmol, Infusion): 2.84 ± 0.40 μl/min/g KW; V (urine flow rate) (anesthetized rats [2]; huUgnA 200 nmol, Post-infuse, ** p<0.01 vs time control): 4.12 ± 0.35** μl/min/g KW; V (urine flow rate) (anesthetized rats [2]; huUgnA 200 nmol, Pre-infuse): 2.14 ± 0.39 μl/min/g KW; GFR (glomerular filtration rate) (anesthetized rats [3]; huUgnA 12 nmol, Infusion): 869 ± 64 μl/min/g KW; GFR (glomerular filtration rate) (anesthetized rats [3]; huUgnA 12 nmol, Post-infuse): 923 ± 66 μl/min/g KW; GFR (glomerular filtration rate) (anesthetized rats [3]; huUgnA 12 nmol, Pre-infuse): 895 ± 51 μl/min/g KW; GFR (glomerular filtration rate) (anesthetized rats [3]; huUgnA 25 nmol, Infusion): 886 ± 66 μl/min/g KW; GFR (glomerular filtration rate) (anesthetized rats [3]; huUgnA 25 nmol, Post-infuse): 823 ± 49 μl/min/g KW; GFR (glomerular filtration rate) (anesthetized rats [3]; huUgnA 25 nmol, Pre-infuse): 820 ± 40 μl/min/g KW; GFR (glomerular filtration rate) (anesthetized rats [3]; huUgnA 50 nmol, Infusion): 817 ± 53 μl/min/g KW; GFR (glomerular filtration rate) (anesthetized rats [3]; huUgnA 50 nmol, Post-infuse): 869 ± 49 μl/min/g KW; GFR (glomerular filtration rate) (anesthetized rats [3]; huUgnA 50 nmol, Pre-infuse): 858 ± 52 μl/min/g KW; GFR (glomerular filtration rate) (anesthetized rats [3]; huUgnA 100 nmol, Infusion): 858 ± 55 μl/min/g KW; GFR (glomerular filtration rate) (anesthetized rats [3]; huUgnA 100 nmol, Post-infuse): 906 ± 38 μl/min/g KW; GFR (glomerular filtration rate) (anesthetized rats [3]; huUgnA 100 nmol, Pre-infuse): 807 ± 62 μl/min/g KW; GFR (glomerular filtration rate) (anesthetized rats [3]; huUgnA 200 nmol, Infusion): 827 ± 61 μl/min/g KW; GFR (glomerular filtration rate) (anesthetized rats [3]; huUgnA 200 nmol, Post-infuse): 849 ± 24 μl/min/g KW; GFR (glomerular filtration rate) (anesthetized rats [3]; huUgnA 200 nmol, Pre-infuse): 857 ± 43 μl/min/g KW
